{
  "source": "patent US10357576B2",
  "about": "“18F-labelled folate/antifolate analogues” (MERCK & CIE, priority 2012, dated 2019)",
  "tested_on": "KB tumor xenografts",
  "experiment": "Biodistribution studies in nude mice bearing KB tumor xenografts",
  "assay_type": "in vivo, nude mice (CD-1 Foxn-1/nu)",
  "excerpt": "In vivo experiments were approved by the local veterinarian department and conducted in accordance to the Swiss law of animal protection. Six to eight-week-old female, athymic nude mice (CD-1 Foxn-1/nu) were purchased from Charles River Laboratories (Sulzfeld, Germany). The animals were fed with a folate-deficient rodent diet starting 5 days prior to the tumor cell inoculation. Mice were inoculated with KB cells (5×10^6 cells in […] PBS) into the subcutis of each shoulder. Animal experiments were performed approximately 14 days after tumor cell inoculation. Biodistribution studies were performed in triplicate. [^18F]-3′-aza-2′-fluorofolic acid was diluted in PBS pH 7.4 to the desired radioactivity concentration (˜5 MBq per mouse) for immediate administration via a lateral tail vein.\n[…] Selected tissues and organs were collected, weighed, and counted for radioactivity in a −counter. The results were listed as percentage of the injected dose per gram of tissue weight [% ID/g], using reference counts from a definite sample of the original injectate that was counted at the same time.\nThe obtained are summarized in Table 2 and represent the percentage injected dose per gram tissue [% ID/g] averaged from three or four animals (Table 2).",
  "key": {"[1]": {"details": "60 min p.i. blockade (100 μg folic acid 10 min before radiotracer)"}},
  "data": [
    {"smiles": "Nc1nc2ncc(CNc3ccc(C(=O)N[C@@H](CCC(=O)O)C(=O)O)c([18F])n3)nc2c(=O)[nH]1", "note": "[3′-aza-2′-[^18F]fluorofolic acid]", "values": [
      {"measurement": "% ID/g in Blood", "setting": "30 min p.i., i.v.", "value": "1.2 ± 0.3", "unit": "% ID/g"},
      {"measurement": "% ID/g in Bone", "setting": "30 min p.i., i.v.", "value": "2.1 ± 0.3", "unit": "% ID/g"},
      {"measurement": "% ID/g in Feces", "setting": "30 min p.i., i.v.", "value": "1.2 ± 0.2", "unit": "% ID/g"},
      {"measurement": "% ID/g in Gallbladder", "setting": "30 min p.i., i.v.", "value": "8.1 ± 2.9", "unit": "% ID/g"},
      {"measurement": "% ID/g in Heart", "setting": "30 min p.i., i.v.", "value": "2.1 ± 0.2", "unit": "% ID/g"},
      {"measurement": "% ID/g in Intestine", "setting": "30 min p.i., i.v.", "value": "1.4 ± 0.1", "unit": "% ID/g"},
      {"measurement": "% ID/g in Kidneys", "setting": "30 min p.i., i.v.", "value": "54.8 ± 6.1", "unit": "% ID/g"},
      {"measurement": "% ID/g in Liver", "setting": "30 min p.i., i.v.", "value": "13.7 ± 2.9", "unit": "% ID/g"},
      {"measurement": "% ID/g in Lungs", "setting": "30 min p.i., i.v.", "value": "2.0 ± 0.3", "unit": "% ID/g"},
      {"measurement": "% ID/g in Muscle", "setting": "30 min p.i., i.v.", "value": "1.7 ± 0.4", "unit": "% ID/g"},
      {"measurement": "% ID/g in Salivary glands", "setting": "30 min p.i., i.v.", "value": "9.0 ± 1.3", "unit": "% ID/g"},
      {"measurement": "% ID/g in Spleen", "setting": "30 min p.i., i.v.", "value": "1.3 ± 0.2", "unit": "% ID/g"},
      {"measurement": "% ID/g in Stomach", "setting": "30 min p.i., i.v.", "value": "2.8 ± 0.5", "unit": "% ID/g"},
      {"measurement": "% ID/g in Tumor", "setting": "30 min p.i., i.v.", "value": "11.7 ± 0.9", "unit": "% ID/g"},
      {"measurement": "Ratio Tumor/Blood", "setting": "30 min p.i., i.v.", "value": "11.1 ± 4.1"},
      {"measurement": "Ratio Tumor/Kidneys", "setting": "30 min p.i., i.v.", "value": "0.2 ± 0.1"},
      {"measurement": "Ratio Tumor/Liver", "setting": "30 min p.i., i.v.", "value": "0.9 ± 0.2"},
      {"measurement": "% ID/g in Blood", "setting": "[1]", "value": "0.8 ± 0.3", "unit": "% ID/g"},
      {"measurement": "% ID/g in Bone", "setting": "[1]", "value": "0.6 ± 0.3", "unit": "% ID/g"},
      {"measurement": "% ID/g in Feces", "setting": "[1]", "value": "6.0 ± 1.1", "unit": "% ID/g"},
      {"measurement": "% ID/g in Gallbladder", "setting": "[1]", "value": "15.8 ± 9.3", "unit": "% ID/g"},
      {"measurement": "% ID/g in Heart", "setting": "[1]", "value": "0.4 ± 0.2", "unit": "% ID/g"},
      {"measurement": "% ID/g in Intestine", "setting": "[1]", "value": "1.3 ± 0.6", "unit": "% ID/g"},
      {"measurement": "% ID/g in Kidneys", "setting": "[1]", "value": "5.9 ± 4.5", "unit": "% ID/g"},
      {"measurement": "% ID/g in Liver", "setting": "[1]", "value": "10.9 ± 3.4", "unit": "% ID/g"},
      {"measurement": "% ID/g in Lungs", "setting": "[1]", "value": "0.7 ± 0.3", "unit": "% ID/g"},
      {"measurement": "% ID/g in Muscle", "setting": "[1]", "value": "0.3 ± 0.1", "unit": "% ID/g"},
      {"measurement": "% ID/g in Salivary glands", "setting": "[1]", "value": "0.6 ± 0.2", "unit": "% ID/g"},
      {"measurement": "% ID/g in Spleen", "setting": "[1]", "value": "0.4 ± 0.2", "unit": "% ID/g"},
      {"measurement": "% ID/g in Stomach", "setting": "[1]", "value": "0.6 ± 0.3", "unit": "% ID/g"},
      {"measurement": "% ID/g in Tumor", "setting": "[1]", "value": "1.7 ± 0.4", "unit": "% ID/g"},
      {"measurement": "Ratio Tumor/Blood", "setting": "[1]", "value": "2.2 ± 0.3"},
      {"measurement": "Ratio Tumor/Kidneys", "setting": "[1]", "value": "0.4 ± 0.2"},
      {"measurement": "Ratio Tumor/Liver", "setting": "[1]", "value": "0.2 ± 0.1"},
      {"measurement": "% ID/g in Blood", "setting": "60 min p.i., i.v.", "value": "0.6 ± 0.1", "unit": "% ID/g"},
      {"measurement": "% ID/g in Bone", "setting": "60 min p.i., i.v.", "value": "1.6 ± 0.3", "unit": "% ID/g"},
      {"measurement": "% ID/g in Feces", "setting": "60 min p.i., i.v.", "value": "3.0 ± 2.0", "unit": "% ID/g"},
      {"measurement": "% ID/g in Gallbladder", "setting": "60 min p.i., i.v.", "value": "8.4 ± 1.8", "unit": "% ID/g"},
      {"measurement": "% ID/g in Heart", "setting": "60 min p.i., i.v.", "value": "1.9 ± 0.3", "unit": "% ID/g"},
      {"measurement": "% ID/g in Intestine", "setting": "60 min p.i., i.v.", "value": "1.9 ± 0.2", "unit": "% ID/g"},
      {"measurement": "% ID/g in Kidneys", "setting": "60 min p.i., i.v.", "value": "53.6 ± 3.2", "unit": "% ID/g"},
      {"measurement": "% ID/g in Liver", "setting": "60 min p.i., i.v.", "value": "10.6 ± 0.9", "unit": "% ID/g"},
      {"measurement": "% ID/g in Lungs", "setting": "60 min p.i., i.v.", "value": "1.5 ± 0.2", "unit": "% ID/g"},
      {"measurement": "% ID/g in Muscle", "setting": "60 min p.i., i.v.", "value": "1.2 ± 0.2", "unit": "% ID/g"},
      {"measurement": "% ID/g in Salivary glands", "setting": "60 min p.i., i.v.", "value": "15.0 ± 6.1", "unit": "% ID/g"},
      {"measurement": "% ID/g in Spleen", "setting": "60 min p.i., i.v.", "value": "1.9 ± 0.1", "unit": "% ID/g"},
      {"measurement": "% ID/g in Stomach", "setting": "60 min p.i., i.v.", "value": "2.8 ± 0.9", "unit": "% ID/g"},
      {"measurement": "% ID/g in Tumor", "setting": "60 min p.i., i.v.", "value": "11.9 ± 1.7", "unit": "% ID/g"},
      {"measurement": "Ratio Tumor/Blood", "setting": "60 min p.i., i.v.", "value": "21.6 ± 2.3"},
      {"measurement": "Ratio Tumor/Kidneys", "setting": "60 min p.i., i.v.", "value": "0.2 ± 0.1"},
      {"measurement": "Ratio Tumor/Liver", "setting": "60 min p.i., i.v.", "value": "1.1 ± 0.2"},
      {"measurement": "% ID/g in Blood", "setting": "90 min p.i., i.v.", "value": "0.6 ± 0.1", "unit": "% ID/g"},
      {"measurement": "% ID/g in Bone", "setting": "90 min p.i., i.v.", "value": "1.6 ± 0.3", "unit": "% ID/g"},
      {"measurement": "% ID/g in Feces", "setting": "90 min p.i., i.v.", "value": "1.8 ± 0.3", "unit": "% ID/g"},
      {"measurement": "% ID/g in Gallbladder", "setting": "90 min p.i., i.v.", "value": "9.3 ± 0.6", "unit": "% ID/g"},
      {"measurement": "% ID/g in Heart", "setting": "90 min p.i., i.v.", "value": "1.8 ± 0.1", "unit": "% ID/g"},
      {"measurement": "% ID/g in Intestine", "setting": "90 min p.i., i.v.", "value": "2.3 ± 0.4", "unit": "% ID/g"},
      {"measurement": "% ID/g in Kidneys", "setting": "90 min p.i., i.v.", "value": "57.3 ± 8.4", "unit": "% ID/g"},
      {"measurement": "% ID/g in Liver", "setting": "90 min p.i., i.v.", "value": "10.3 ± 2.4", "unit": "% ID/g"},
      {"measurement": "% ID/g in Lungs", "setting": "90 min p.i., i.v.", "value": "1.6 ± 0.3", "unit": "% ID/g"},
      {"measurement": "% ID/g in Muscle", "setting": "90 min p.i., i.v.", "value": "1.5 ± 0.4", "unit": "% ID/g"},
      {"measurement": "% ID/g in Salivary glands", "setting": "90 min p.i., i.v.", "value": "14.1 ± 0.9", "unit": "% ID/g"},
      {"measurement": "% ID/g in Spleen", "setting": "90 min p.i., i.v.", "value": "2.2 ± 0.2", "unit": "% ID/g"},
      {"measurement": "% ID/g in Stomach", "setting": "90 min p.i., i.v.", "value": "2.7 ± 0.1", "unit": "% ID/g"},
      {"measurement": "% ID/g in Tumor", "setting": "90 min p.i., i.v.", "value": "12.6 ± 1.8", "unit": "% ID/g"},
      {"measurement": "Ratio Tumor/Blood", "setting": "90 min p.i., i.v.", "value": "23.8 ± 4.1"},
      {"measurement": "Ratio Tumor/Kidneys", "setting": "90 min p.i., i.v.", "value": "0.2 ± 0.1"},
      {"measurement": "Ratio Tumor/Liver", "setting": "90 min p.i., i.v.", "value": "1.3 ± 0.4"}
    ]}
  ]
}
